Assay [1] has as its system rhinitis, and burning in the nose and throat resulting from secondhand cigarette smoke. The experiment in a line: Example 1: Patient A, topical therapeutic spray to nasal cavities and throat. Format: in vivo, human. The procedure:
Set up: The trial consisted of administering a topical therapeutic spray to a patient suffering from rhinitis, and burning in the nose and throat resulting from persistent and long-term exposure to secondhand cigarette smoke. About 250 mg/L concentration of sodium pyruvate incorporated spray was administered to the nasal cavities and throat at about 1 ml per spray, administered two to three sprays per administration.
The spray treatment was re-applied a couple of hours later. […] The spray was applied prophylactically before bed.

Assay [2] concerns epidermal disturbances from psoriatic plaques. The experiment in a line: Example 2: Patient B, topical therapeutic wipe on psoriatic plaques on the back. Format: in vivo, human. On the procedure: Set up: The trial consisted of administering a topical therapeutic wipe to patients suffering from epidermal disturbances from psoriatic plaques. […] About 250 mg/L concentration of sodium pyruvate formulated with glycerin emollient imbued was administered to the affected area via an imbued wipe. The treatment was applied twice a day, once in the morning and once in the evening.

Assay [3] has the same test system. The experiment in a line: Example 3: Patient C, roll-on on psoriatic plaques behind ears and scalp. Format: in vivo, human. On the procedure:
Set up: The trial consisted of administering a topical therapeutic spray to a patient suffering from epidermal disturbances from psoriatic plaques. […] About 250 mg/L concentration of sodium pyruvate formulated with glycerin emollient was administered to the affected area via an imbued roll-on. The treatment was applied twice a day, once in the morning and once in the evening.

Assay [4] concerns redness and burning on the general epidermis and deep muscle pain post-radiation therapy. The experiment in a line: Example 4: Patient D, spray and wipe in breast cancer patient post-radiation therapy. Format: in vivo, human. An excerpt:
Set up: The trial consisted of administering a topical therapeutic spray and wipe to a breast cancer patient suffering from redness and burning on the general epidermis and deep muscle pain post-radiation therapy treatment. The patient received 30 daily radiation treatments in just over a month. […] The topical therapeutic spray was used afterwards ad hoc.

Assay [5] concerns severe burning, itching, and peeling in the urethral, vaginal, and anal areas. The experiment in a line: Example 5: Patient E, imbued wipe in patient on Taxotere and Carboplatin chemotherapy with monoclonal antibody infusion. Format: in vivo, human. The note with it: continued administration of wipe. The procedure: Set up: The trial consisted of administering a topical therapeutic imbued wipe to a patient receiving a concurrent Taxotere and Carboplatin chemotherapy, with monoclonal antibody infusion treatments. The side effects of cancer treatment presented the patient with severe burning, itching, and peeling in the urethral, vaginal, and anal areas due to the elimination of the chemicals via urine and stools. About 250 mg/L concentration of sodium pyruvate formulated with glycerin emollient wipe was used to clean the affected areas after elimination, in addition to when the discomforts were present.
Patient E continued using the topical treatment concurrently with cancer therapy, and for about a month after.

The test system of assay [6] is redness, itchy splotches on the underside of the body, and fur-less areas around the ears due to ragweed pollen sensitivity. Kind of assay: Example 6: Patient F, spray on dog with ragweed pollen sensitivity. Format: in vivo, Jack Russel Terrier. The procedure:
Set up: The trial consisted of administering a topical therapeutic spray to a 5-year-old Jack Russel Terrier suffering from redness, itchy splotches on the underside of the body, and fur-less areas around the ears due to ragweed pollen sensitivity. […] After cleaning with water and drying the affected areas, about 250 mg/L concentration of sodium pyruvate spray formulated with glycerin was applied to the undercarriage and ears.
Summary: After the first administration, the redness subsided, and the dog relaxed within 15 minutes. The treatment was administered after each time the dog went outside and continued throughout the ragweed pollen season.

For assay [7], the system named is severe mouth sores, pain, and skin eruptions. The experiment in a line: Example 7: Patient G, oral spray in cancer patient on Taxotere and Carboplatin chemotherapy. Format: in vivo, human. On the procedure:
Set up: The trial consisted of administering a topical therapeutic spray to a cancer patient receiving Taxotere and Carboplatin chemotherapy. The side effects of cancer treatment presented the patient with severe mouth sores, pain, and skin eruptions which prevented regular mastication and intake of food and some beverages. Patient G's tastebuds were also severely affected, and the taste was unreliable. […] About 250 mg/L concentration of sodium pyruvate oral spray was administered inside the mouth and throat at 1 ml per spray, two to three sprays per administration. […] The product was used ad hoc to provide continuous comfort as saliva reintroduced the chemicals causing discomfort. […] However, issues with taste were not improved with the topical therapeutic spray.

Assay [8] concerns moderate sunburn on the face, shoulders, and arms. The experiment in a line: Example 8: Patient H, spray on moderate sunburn. Format: in vivo, human. On the procedure:
Set up: The trial consisted of administering a topical therapeutic spray to a patient with moderate sunburn on the face, shoulders, and arms early in the summer season while working on a field project. The patient had used sunscreen, but due to the prolonged exposure, the effects of the sunburn were present. The face was particularly red as it was directly exposed to ultraviolet (UV) radiation and not covered by clothing. About 250 mg/L concentration of sodium pyruvate formulated with glycerin emollient spray was applied to the affected areas.
The spray was applied for another day until the redness subsided.

Assay [9] relates to redness, burning, and skin inflammation after exposure to irritating vegetation, e.g., poison ivy. Kind of assay: Example 9: Patient I, spray after exposure to irritating vegetation. Format: in vivo, human. As to conditions: about 250 mg/L with glycerin emollient spray, after the first administration. On the procedure:
The affected area was cleaned with cold water without soap to remove the oils and waxes transferred from the plant. About 250 mg/L concentration of sodium pyruvate formulated with glycerin emollient spray was applied to the affected areas of the general epidermis.
The topical therapeutic spray was readministered ad hoc depending on the severity of the exposure.

Assay [10] concerns burning throat due to atmospheric dryness, allergic reaction, or disease state reaction. The experiment in a line: Example 10: Patient J, oral spray for burning throat. As to conditions: about 250 mg/L oral spray, 1 ml per spray, two to three sprays, after the first administration. Format: in vivo, human. On the procedure: Set up: The trial consisted of administering a topical therapeutic spray to a patient suffering from a burning throat due to atmospheric dryness, allergic reaction, or disease state reaction. About 250 mg/L concentration of sodium pyruvate oral spray was administered inside the mouth and throat at 1 ml per spray, two to three sprays per administration.
The product was used ad hoc to provide continuous comfort.

Structures are written as SMILES.

For the molecule `CC(=O)C(=O)[O-].[Na+]` [sodium pyruvate, 2-oxopropanoic acid sodium salt], the “effect of the second treatment on burning” value in [1] (about 250 mg/L spray re-applied a couple of hours later) was “complete alleviation of the burning to both the nose and throat”. Further, the “time to reduced burning or itching in the affected nasal and throat areas” value in assay [1] (about 250 mg/L spray, about 1 ml per spray, two to three sprays, after the first administration) was not above 15 min. Moreover, the “recurrence of pain and burning” value in assay [1] (spray also applied prophylactically before bed) is given as “never returned”. For the same molecule, the “outcome with continuous administration” value in [2] (about 250 mg/L with glycerin emollient, imbued wipe, twice a day) was “itching and burning did not return, and the skin surface returned to normal form”; in assay [3] (about 250 mg/L with glycerin emollient, imbued roll-on, twice a day), “itching and burning did not return and the skin surface returned to normal form”. Moreover, the “time to reduced burning or itching” value in [2] (about 250 mg/L with glycerin emollient, imbued wipe, twice a day, after administration) is not above 15 min. The “outcome when treatment was interrupted” value in assay [2] (treatment interrupted) is “the plaques returned along with itching and burning”. Besides, the “time to reduced burning and itching” value in assay [3] (about 250 mg/L with glycerin emollient, imbued roll-on, twice a day, after administration) was not above 15 min; in assay [9], not above 15 min. The “outcome when administration was interrupted” value in assay [3] (administration interrupted) was “the plaques returned along with itching and burning”; in assay [6] (during the pollen season, administration interrupted), “the itching, redness, and scratching returned”. In [4] (about 250 mg/L with glycerin emollient, after the first administration via an imbued cloth wipe), the “time to reduction in burning” value is not above 30 min. For the same molecule, the “blistering to the skin” value in [4] (about 250 mg/L with glycerin emollient, imbued cloth wipe) is “without any blistering to the skin”. Further, the “browning of the affected area (remark of radiation oncologist at follow-up visits)” value in assay [4] (wipe, then spray ad hoc) is given as “dissipated more rapidly than usual”. The “sloughing of damaged skin” value in assay [5] is on record as “ceased within a few days of continued administration”. In addition, the “time until the redness subsided and the dog relaxed” value in assay [6] (about 250 mg/L spray with glycerin on undercarriage and ears, after the first administration) was not above 15 min. Further, the “time to almost complete relief of pain and burn” value in assay [7] (about 250 mg/L oral spray, 1 ml per spray, two to three sprays, after the first administration) was not above 30 min. Besides, in [7] (oral spray used ad hoc), the “consumption of food and drinks” value was “able to regularly consume food and drinks without discomfort”. In assay [7] (oral spray used ad hoc), the issues with taste entry is “not improved”. Also, the “sores, pain and discomfort with use of the spray” value in assay [7] (oral spray used ad hoc) is “the sores resolved, and the pain and discomfort were managed”. The “time to reduced burning” value in assay [8] (about 250 mg/L with glycerin emollient spray, after the first administration) is not above 15 min. The “blistering and peeling of the skin due to sunburn” value in [8] (spray applied for another day until the redness subsided) is “aided in the prevention of blistering and peeling”. In addition, in assay [10], the “time to reduced burning, itching, and general discomfort” value is not above 15 min.
On to `O=C([O-])O.[Na+]` [baking soda], for which the “alleviation of mouth sores, pain and skin eruptions” value in assay [7] (applied to the affected areas as recommended, before the topical therapeutic) is listed as “did little to alleviate the problem”.

Values taken from US20250099409A1, “TOPICAL THERAPEUTIC” (Beta Biofuel Solutions, LLC, priority 2022, published 2025).
